Assay results: patent publication US20250367111A1, “DELIVERY OF SUSTAINED LOCAL AND SYSTEMIC IMMUNOMODULATION” (Northeastern University, priority 2024, published 2025)

Experiments:
[1] = intratumoral; 40 patients with advanced metastatic solid tumors or lymphomas; cited from earlier work
[2] = Blood cell count with Procyte Dx Analyzer after oral TLZ; assay type: in vivo; conditions: BRCA−/− breast cancer mice, indicative of bone marrow toxicity
Text: PARPi have been limited due to induction of bone marrow toxicity.

[3] = system: mammary glands of BRCA1-deficient mice; experiment: Cancer biomarkers (PCNA, γ-H2AX) in mammary glands of BRCA1-deficient mice; assay type: in vivo; conditions: mammary glands harvested 4 weeks after treatment
Description: InCeT-TLZ favorably alters cancer biomarkers compared with systemic administration or empty implants. Mammary glands were harvested 4 weeks after BRCA1-deficient mice were treated with implants (InCeT-TLZ or empty InCeT) or free TLZ. As shown in, over half of the epithelial cells in the mammary glands of mice treated with empty InCeT were positive for PCNA, confirming robust proliferation.

[4] = system: BRCA−/− model with conditional BRCA1/2, PTEN, and TP53 deletions (mFT3666); experiment: Survival in BRCA−/− mOC model (mFT3666); assay type: in vivo, mice; conditions: free TLZ; control ~57 days
Description: Sustained PARP inhibition doubles survival in BRCA^−/− mOC model. Therapeutic efficacy was tested in vivo in a BRCA^−/− model with conditional BRCA1/2, PTEN, and TP53 deletions (mFT3666) that mimics late stage disseminated disease. Free TLZ slowed disease progression and extended median survival to ˜70 days, compared with control (˜57 days). These animals eventually developed severe ascites and had to be sacrificed. A InCeT-TLZ implant loaded with 50 μg of TLZ was injected into the peritoneal cavity using an 18 gauge needle every 25 days. Most of the InCeT-TLZ group of animals survived until 93 days, with some developing ascites.

[5] = system: Brca2−/−p53−/−R172H Pten−/− intraperitoneal disseminated metastatic ovarian cancer model; experiment: Survival in intraperitoneal disseminated metastatic ovarian cancer model; assay type: in vivo; conditions: i.p.; 50 μg TLZ over 21 days (implant or equivalent dose by periodic injections)
Description: In a Brca2^−/−p53^−/−R172H Pten^−/− intraperitoneal disseminated metastatic ovarian cancer model, SMAART-TLZ i.p implants (50 μg TLZ release over 21 days) increased median survival to 92 days compared to periodic i.p injections of TLZ at the equivalent drug dose over 21 days (70 days median OS-FIG. 6A).

[6] = EMBRACA, cited from earlier work
[7] = system: TNBC; conditions: cited from earlier work

In the case of `Nc1ncnc2c1ncn2[C@@H]1O[C@@H]2COP(=O)([S-])O[C@@H]3[C@H](O)[C@@H](COP([O-])(=S)O[C@H]2[C@H]1O)O[C@H]3n1cnc2c(N)ncnc21.[Na+].[Na+]` (stereo partly shown) [ADU-S100], the dose-limiting toxicities [1] is given as “no dose-limiting toxicities”.
For `Cn1ncnc1[C@H]1c2n[nH]c(=O)c3cc(F)cc(c23)N[C@@H]1c1ccc(F)cc1` [TLZ, Talazoparib], the red blood cells [2] was “decrease in red blood cells”, the “reduction of PCNA+ cells” value [3] was ~50% and the γ-H2AX expression [3] was “but not free TLZ increased γ-H2AX expression”. For the same compound, the median survival [4] was ~70 days, the median survival [5] was 70 days and the “patients with adverse events” value [6] was 65%. For the same compound, the “patients with adverse events needing dose reduction below the therapeutic level” value ([6]; of those patients) was 53%.
In the case of `O=C(c1cc(Cc2n[nH]c(=O)c3ccccc23)ccc1F)N1CCN(C(=O)C2CC2)CC1` [olaparib], the “overall response rate (ORR)” value ([7]; human, in vivo) is given as 59.9% and the “progression-free survival (PFS)” value ([7]; vs. 4.2 months standard chemotherapy) is given as 7 months.
